Data: paper PMC2192356 (The Journal of Experimental Medicine, 1996)
Where a SMILES comes first, the peptide text is derived from it. Where no end group is shown, it is not given here. The star is where a group is joined. Biotin = O=C1N[C@H]2[C@H](CS[C@H]2CCCCC(=O)*)N1

Columns and labels:
class II proteins = assay type: binding
DR1 [1] = molecular target: T1, DR1 (Homo sapiens, UniProt P01903+P01911, A100R/D57E/F55L/F60I/F76Y/I96L/L162R/M171V/P40L/Q125E/R42F/V115G/Y59C); assay type: binding; conditions: pH 7
IAk [2] = molecular target: T2, IAk (Mus musculus, UniProt P01910+P06343); assay type: binding, murine; conditions: pH 5
IAk [3] = molecular target: T2, IAk; assay type: binding, murine; conditions: pH 5; remark: listed apart in the source
IEk [4] = assay type: binding, murine; conditions: pH 5
IAd [5] = assay type: binding, murine; conditions: pH 5
[6] = molecular target: IAk (mouse (endogenous in CH27 B lymphoma)); assay: ELISA
DR1 [7] = molecular target: T1, DR1; assay type: binding; conditions: pH 5
IEk [8] = assay type: binding, murine; conditions: pH 5; remark: listed apart in the source
IAd [9] = assay type: binding, murine; conditions: pH 5; remark: listed apart in the source
IEd = assay type: binding, murine; conditions: pH 5
IAb = assay type: binding, murine
DR1 [10] = molecular target: T1, DR1; assay type: binding; conditions: pH 7; remark: listed apart in the source
IEk [11] = assay type: binding, murine; conditions: pH 5; remark: listed apart in the source
IAk [12] = molecular target: T2, IAk; assay type: binding, murine; conditions: pH 5; remark: listed apart in the source
IAk [13] = molecular target: T2, IAk; assay type: binding, murine; conditions: pH 7
[14] = system: 3DO-54.8 T cells with CH27 APC; assay type: cell-based
[15] = molecular target: DR1 (human (endogenous in LG2)) (UniProt P01903); assay: ELISA

Chain of biotin-SEB (P01552 28-266): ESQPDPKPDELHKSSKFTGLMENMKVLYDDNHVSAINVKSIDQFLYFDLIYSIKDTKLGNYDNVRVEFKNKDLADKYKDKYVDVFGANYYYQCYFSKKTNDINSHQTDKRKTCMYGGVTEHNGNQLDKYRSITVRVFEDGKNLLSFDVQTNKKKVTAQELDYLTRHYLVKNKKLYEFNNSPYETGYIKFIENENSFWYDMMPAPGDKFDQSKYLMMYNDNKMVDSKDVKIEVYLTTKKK

## Myo(106-118): IAd-binding peptide (FISEAIIHVLHSR) [reference compound]
Class II proteins
  inhibition of biotin-B(10-30) binding to class II: inhibits

## MAT(17-31): DR1-binding antigenic peptide defined by specific T cells (SGPLKAEIAQRLEDV)
DR1 [1]
  inhibition of the binding of biotin-B(10-30) to DR1: 25- 50%

## CC(C)C[C@H](NC(=O)[C@H](C)NC(=O)[C@H](CCC(=O)O)NC(=O)[C@@H](NC(=O)[C@H](CC(C)C)NC(=O)[C@H](Cc1c[nH]cn1)NC(=O)CCCC[C@@H]1SC[C@@H]2NC(=O)N[C@@H]21)C(C)C)C(=O)N[C@@H](Cc1ccc(O)cc1)C(=O)N[C@@H](CC(C)C)C(=O)N[C@H](C(=O)N[C@@H](CS)C(=O)NCC(=O)N[C@@H](CCC(=O)O)C(=O)N[C@@H](CCCNC(=N)N)C(=O)NCC(=O)N[C@@H](Cc1ccccc1)C(=O)N[C@@H](Cc1ccccc1)C(=O)N[C@@H](Cc1ccc(O)cc1)C(=O)N[C@H](C(=O)N1CCC[C@H]1C(=O)N[C@@H](CCCCNC(=O)CCCC[C@@H]1SC[C@@H]2NC(=O)N[C@@H]21)C(=O)N[C@@H](C)C(=O)O)[C@@H](C)O)C(C)C [biotin-B(10-30)] (Biotin-HLVEALYLVCGERGFFYTPK(Biotin)A-OH; N-terminus and C-terminus assumed)
IAk [2]
  time to saturate the alternative binding site of IAk: ≤ 1 h

## FVNQHLCGSHLVEALYLVCGER [B(1-22)]
IAk [3]
  inhibition of the binding of biotin-B(10-30): inhibits
IEk [4]
  inhibition of the binding of biotin-B(10-30): inhibits
IAd [5]
  inhibition of the binding of biotin-B(10-30): inhibits

## biotin-SEB (from UniProt P01552 28-266) (natural protein)
[6]
  Kd: 62 nM

## HLVEALYLVCGERGFFYTPKA [B(10-30)]
IAk [2]
  specific binding to class II protein: binds
DR1 [7]
  specific binding to class II protein: binds
IEk [8]
  specific binding to class II protein: binds
IAd [9]
  specific binding to class II protein: binds
IEd
  specific binding to class II protein: binds
IAb
  specific binding to class II protein: binds
IAk [3]
  inhibition of the binding of biotin-B(10-30): inhibit
IEk [4]
  inhibition of the binding of biotin-B(10-30): inhibit
IAd [5]
  inhibition of the binding of biotin-B(10-30): inhibit
DR1 [10]
  affinity for DR1 relative to HA(306-318), logs lower: ~ 3 logs
  inhibition of the binding of allele-specific antigenic peptides: only weakly inhibited
IEk [11]
  affinity for the groove of IEk relative to pCc(91-104), logs lower: at least 3 logs
  inhibition of the binding of allele-specific antigenic peptides: only weakly inhibited
IAk [12]
  inhibition of the binding of allele-specific antigenic peptides: only weakly inhibited
IAk [13]
  inhibition of the binding of biotin-SEB to IAk: inhibited
  peptide concentration giving complete inhibition of SEB binding to IAk: 4
[14]
  inhibition of the response of 3DO-54.8 to SEB (IL-2): inhibited
Class II proteins
  dissociation rate from class II: relatively rapid
  pH dependence of binding to murine class II proteins: not enhanced
  time to approach saturation / plateau of binding to class II: 1 to 2 h
3DO-54.8 T cells
  effect on stimulation by anti-CD3 mAb (T cell toxicity): not altered

## RADLIAYLKQATAK [pCc(91-104), reference compound]
IEk [11]
  inhibition of the binding of allele-specific antigenic peptides: inhibit

## NTDGSTDYGILQINSR [HEL(46-61), reference compound]
IEk [11]
  affinity for the groove of IEk relative to pCc(91-104), logs lower: at least 3 logs
IAk [13]
  inhibition of the binding of biotin-SEB to IAk: No inhibition
[14]
  inhibition of the response of 3DO-54.8 to SEB (IL-2): did not

## Intact insulin [reference compound]
IAk [3]
  inhibition of the binding of biotin-B(10-30): does not inhibit
IEk [4]
  inhibition of the binding of biotin-B(10-30): does not inhibit
IAd [5]
  inhibition of the binding of biotin-B(10-30): does not inhibit

## HLVEALYLVCGERGFFYTPKA (not fully specified (N-terminus); also: biotin (site not given here)) [biotin-B(10-30)]
[15]
  Kd: 620 nM
